From patent US20120115232A1, “METHOD FOR INDUCING DEGRADATION OF PROTEIN IN MAMMALIAN CELL” (OSAKA UNIVERSITY, priority 2009, published 2012)

Tested on: GFP-aid-NLS marker protein
Test: Induction of degradation of labeled protein of interest in transiently transfected COS1 cells, Western blot with GFP antibody
Format: cell-based, monkey
Settings: 500 μM auxin, 5 hours
Method: The EGFP segment of pIRES2-AcGFP1 (Clontech) was removed by treatment with restriction enzymes BstXI and NotI, into which EGFP-IAA17, which was amplified using pMK42 (an EGFP-IAA17-containing plasmid produced by the inventors) as a template and the following primer set, was inserted (the amplified sequence is shown in SEQ ID NO: 13). By this process, EGFP-IAA17 was cloned downstream of IRES. The resulting plasmid was treated with restriction enzymes XhoI and SmaI, and into this site, rice TIR1 tagged with 9Myc at its C terminus was inserted. By this process, the rice TIR1 was inserted between a CMV promoter and IRES, and the resulting plasmid was referred to as pNHK60. The pNHK60 was transferred into the proliferating COS1, CHO, and NIH3T3 cells using Lipofectamine 2000 (Invitrogen) for transient expression. The HEK293 cell shown in FIG. 4 is a HEK293 strain stably expressing pNHK60, which was obtained by transfer of the pNHK60 under the aforementioned conditions and subsequent selection by the addition of G418 to a medium.
In the experiment of transient expression, the cells were cultured in a medium to which 500 μM IAA or NAA was added, and after five hours, the cells were collected, from which extracts were prepared. […] The factors were detected by Western blotting.
The protein thus extracted was separated by SDS-PAGE and then transferred to a nitrocellulose membrane. Using an anti-Myc antibody (mouse monoclonal 9E10) and an anti-GFP antibody (mouse monoclonal 9E1), each kind of protein was detected by Western blotting. […] For migration control, total extracted proteins were detected by Ponceau staining. Since the […] TIR1 gene is tagged with 9Myc, the TIR1 protein can be detected by Western blotting with the aforementioned Myc antibody. Also, EGFP, which is a protein to be degraded in the complex protein, can be detected by Western blotting with the GFP antibody.
In a similar manner to Example 1, the induction of degradation of a labeled protein of interest was compared between the case in which an expression vector having the TIR1 family protein gene from rice linked between a virus promoter and IRES and the chimeric gene expressing a labeled protein of interest linked downstream thereof was transferred (corresponding to A in FIG. 5) and the case in which an expression vector having the chimeric gene expressing a labeled protein of interest linked between a virus promoter and IRES and the TIR1 family protein gene from rice linked downstream thereof was transferred (corresponding to B in FIG. 5). […] After extraction of a protein sample, the expressed GFP-aid-NLS marker protein was detected by Western blotting using the GFP antibody.

[1] = DNA construct A (rice TIR1 between virus promoter and IRES, chimeric gene downstream)
[2] = DNA construct B (chimeric gene between virus promoter and IRES, rice TIR1 downstream)

Compound	depletion of expressed GFP-aid-NLS marker protein [1]	depletion of expressed GFP-aid-NLS marker protein [2]
O=C(O)Cc1cccc2ccccc12 [NAA, 1-naphthaleneacetic acid]	efficiently depleted	no outstanding depletion
O=C(O)Cc1c[nH]c2ccccc12 [IAA, indole-3-acetic acid]	efficiently depleted	no outstanding depletion
